The values below come from PMC5218480 (PLoS ONE, 2017).

This experiment deals with MV-4-11 cells. As to the kind of experiment: Gene expression microarray analysis (Affymetrix PrimeView) and GSEA. As to conditions: MV-4-11 cells, 48 hours. The arrangement: RFU PODN (11730768_x_at) / Fold change /veh PODN (11730768_x_at) / RFU LINC00158 (11744669_a_at) / Fold change /veh LINC00158 (11744669_a_at) / RFU DUSP10 (11751237_a_at) / Fold change /veh DUSP10 (11751237_a_at) / RFU ID3 (11757404_x_at) / Fold change /veh ID3 (11757404_x_at) / RFU PLEKHG5 (11737974_s_at) / Fold change /veh PLEKHG5 (11737974_s_at) / RFU LRRC4B (11730491_at) / Fold change /veh LRRC4B (11730491_at) / RFU GIMAP4 (11747438_a_at) / Fold change /veh GIMAP4 (11747438_a_at) / RFU KRT8 (11758183_x_at) / Fold change /veh KRT8 (11758183_x_at) / RFU CNN1 (11734310_a_at) / Fold change /veh CNN1 (11734310_a_at) / RFU VPS37D (11726825_at) / Fold change /veh VPS37D (11726825_at) / RFU C10orf10 (11716522_x_at) / Fold change /veh C10orf10 (11716522_x_at) / RFU KIR2DL2 /// KIR2DL4 /// KIR2DL5A /// KIR2DL5B /// KIR2DS1 /// KIR2DS2 /// KIR2DS3 /// KIR2DS4 /// KIR3DL3 /// KIR3DL3 /// KIR3DS1 (11738374_at) / Fold change /veh KIR2DL2 /// KIR2DL4 /// KIR2DL5A /// KIR2DL5B /// KIR2DS1 /// KIR2DS2 /// KIR2DS3 /// KIR2DS4 /// KIR3DL3 /// KIR3DL3 /// KIR3DS1 (11738374_at) / RFU C1QL1 (11718748_at) / Fold change /veh C1QL1 (11718748_at) / RFU TMPRSS4 (11747572_a_at) / Fold change /veh TMPRSS4 (11747572_a_at) / RFU HAMP (11756126_x_at) / Fold change /veh HAMP (11756126_x_at) / RFU RNFT2 (11725882_a_at) / Fold change /veh RNFT2 (11725882_a_at) / RFU NR4A2 (11747474_a_at) / Fold change /veh NR4A2 (11747474_a_at) / RFU ABCC12 (11746883_a_at) / Fold change /veh ABCC12 (11746883_a_at) / RFU TMEM136 (11760407_x_at) / Fold change /veh TMEM136 (11760407_x_at) / RFU CLDN22 /// WWC2 (11732394_at) / Fold change /veh CLDN22 /// WWC2 (11732394_at) / RFU HLA-DPB1 (11760878_x_at) / Fold change /veh HLA-DPB1 (11760878_x_at) / RFU SPINT1 (11716480_a_at) / Fold change /veh SPINT1 (11716480_a_at) / RFU GAP43 (11754022_s_at) / Fold change /veh GAP43 (11754022_s_at) / RFU A4GNT (11735810_at) / Fold change /veh A4GNT (11735810_at) / RFU PRB3 (11715151_x_at) / Fold change /veh PRB3 (11715151_x_at) / RFU TUBB4B (11761932_at) / Fold change /veh TUBB4B (11761932_at) / RFU CAPN14 (11732068_a_at) / Fold change /veh CAPN14 (11732068_a_at) / RFU TMCC2 (11721928_a_at) / Fold change /veh TMCC2 (11721928_a_at) / RFU IRGQ (11745062_a_at) / Fold change /veh IRGQ (11745062_a_at) / RFU FAM174B (11720279_a_at) / Fold change /veh FAM174B (11720279_a_at) / RFU TMPRSS4 (11748680_a_at) / Fold change /veh TMPRSS4 (11748680_a_at) / RFU FAM212B (11763350_a_at) / Fold change /veh FAM212B (11763350_a_at) / RFU PLEKHG5 (11743358_a_at) / Fold change /veh PLEKHG5 (11743358_a_at) / RFU ZSCAN30 (11745921_a_at) / Fold change /veh ZSCAN30 (11745921_a_at) / RFU CMKLR1 (11741424_a_at) / Fold change /veh CMKLR1 (11741424_a_at) / RFU LOC101060620 /// MAPK8IP1 (11723275_at) / Fold change /veh LOC101060620 /// MAPK8IP1 (11723275_at) / RFU SPTSSB (11747773_x_at) / Fold change /veh SPTSSB (11747773_x_at) / RFU PRSS12 (11739890_at) / Fold change /veh PRSS12 (11739890_at) / RFU BIN1 (11741810_x_at) / Fold change /veh BIN1 (11741810_x_at) / RFU WNT11 (11732464_a_at) / Fold change /veh WNT11 (11732464_a_at) / RFU C10orf10 (11716521_a_at) / Fold change /veh C10orf10 (11716521_a_at) / RFU C5orf56 (11738089_at) / Fold change /veh C5orf56 (11738089_at) / RFU CYB561 (11721691_x_at) / Fold change /veh CYB561 (11721691_x_at) / RFU ANKRD19P (11752326_a_at) / Fold change /veh ANKRD19P (11752326_a_at) / RFU OR2T12 /// OR2T33 /// OR2T8 (11738714_s_at) / Fold change /veh OR2T12 /// OR2T33 /// OR2T8 (11738714_s_at) / RFU VCAN (11748164_a_at) / Fold change /veh VCAN (11748164_a_at) / RFU JSRP1 (11732532_at) / Fold change /veh JSRP1 (11732532_at) / RFU KRTAP10-11 (11738290_x_at) / Fold change /veh KRTAP10-11 (11738290_x_at) / RFU MYO3A (11730013_a_at) / Fold change /veh MYO3A (11730013_a_at) / RFU EBF3 (11725865_a_at) / Fold change /veh EBF3 (11725865_a_at) / RFU CAMK2N1 (11719241_x_at) / Fold change /veh CAMK2N1 (11719241_x_at) / RFU C5orf56 (11738088_a_at) / Fold change /veh C5orf56 (11738088_a_at) / RFU OLFML3 (11715873_a_at) / Fold change /veh OLFML3 (11715873_a_at) / RFU LOC100653217 /// NTM (11731650_a_at) / Fold change /veh LOC100653217 /// NTM (11731650_a_at) / RFU MAPK11 (11762145_a_at) / Fold change /veh MAPK11 (11762145_a_at) / RFU FIZ1 (11724087_x_at) / Fold change /veh FIZ1 (11724087_x_at) / RFU OASL (11726364_x_at) / Fold change /veh OASL (11726364_x_at) / RFU SOX15 (11748057_x_at) / Fold change /veh SOX15 (11748057_x_at) / RFU CD79A (11719716_a_at) / Fold change /veh CD79A (11719716_a_at) / RFU HIST1H1D (11736915_at) / Fold change /veh HIST1H1D (11736915_at) / RFU CASKIN2 (11723855_a_at) / Fold change /veh CASKIN2 (11723855_a_at) / RFU LOC730098 (11760151_x_at) / Fold change /veh LOC730098 (11760151_x_at) / RFU OR4N2 (11742367_at) / Fold change /veh OR4N2 (11742367_at) / RFU PRRT2 (11749266_a_at) / Fold change /veh PRRT2 (11749266_a_at) / RFU SNX32 (11753110_a_at) / Fold change /veh SNX32 (11753110_a_at) / RFU CDHR5 (11726645_a_at) / Fold change /veh CDHR5 (11726645_a_at) / RFU RCAN1 (11760418_a_at) / Fold change /veh RCAN1 (11760418_a_at) / RFU FAM167A (11723789_a_at) / Fold change /veh FAM167A (11723789_a_at) / RFU FAM26E (11764081_at) / Fold change /veh FAM26E (11764081_at) / RFU ISYNA1 (11749810_s_at) / Fold change /veh ISYNA1 (11749810_s_at) / RFU ACY1 (11761880_at) / Fold change /veh ACY1 (11761880_at) / RFU 11764098_at / Fold change /veh 11764098_at / RFU SAMD14 (11745864_x_at) / Fold change /veh SAMD14 (11745864_x_at) / RFU NPB (11741838_a_at) / Fold change /veh NPB (11741838_a_at) / RFU TMPRSS6 (11731388_a_at) / Fold change /veh TMPRSS6 (11731388_a_at) / RFU KRTAP10-2 (11738614_at) / Fold change /veh KRTAP10-2 (11738614_at) / RFU ARHGAP8 /// PRR5-ARHGAP8 (11727945_x_at) / Fold change /veh ARHGAP8 /// PRR5-ARHGAP8 (11727945_x_at) / RFU KRTAP5-7 /// NADSYN1 (11734609_at) / Fold change /veh KRTAP5-7 /// NADSYN1 (11734609_at) / RFU RASL12 (11751679_a_at) / Fold change /veh RASL12 (11751679_a_at) / RFU CDKN2B (11736163_a_at) / Fold change /veh CDKN2B (11736163_a_at) / RFU PRF1 (11729649_at) / Fold change /veh PRF1 (11729649_at) / RFU, ZNF638 /// ZNF638-IT1 / Fold change vs veh, ZNF638 /// ZNF638-IT1 / RFU, PANK3 / Fold change vs veh, PANK3 / RFU, SH3YL1 / Fold change vs veh, SH3YL1 / RFU, ZEB2 / Fold change vs veh, ZEB2 / RFU, NRIP1 / Fold change vs veh, NRIP1 / RFU, PTTG1IP / Fold change vs veh, PTTG1IP / RFU, CAPN2 / Fold change vs veh, CAPN2 / RFU, MED14 / Fold change vs veh, MED14 / RFU, SNORA58 / Fold change vs veh, SNORA58 / RFU, C1orf63 / Fold change vs veh, C1orf63 / RFU, LRRFIP1 / Fold change vs veh, LRRFIP1 / RFU, NDUFAF7 / Fold change vs veh, NDUFAF7 / RFU, SLC12A2 / Fold change vs veh, SLC12A2 / RFU, IBTK / Fold change vs veh, IBTK / RFU, ESF1 / Fold change vs veh, ESF1 / Fold change vs veh, TMEM50B / RFU, TAOK1 / Fold change vs veh, TAOK1 / RFU, ACBD3 / Fold change vs veh, ACBD3 / RFU, TMA16 / Fold change vs veh, TMA16 / RFU, RWDD3 / Fold change vs veh, RWDD3 / RFU, BCAT1 / Fold change vs veh, BCAT1 / RFU, EDEM3 / Fold change vs veh, EDEM3 / RFU, TMEM33 / Fold change vs veh, TMEM33 / RFU, WDR75 / Fold change vs veh, WDR75 / RFU, AHCTF1 / Fold change vs veh, AHCTF1 / RFU, TFRC / Fold change vs veh, TFRC / RFU, ZDHHC17 / Fold change vs veh, ZDHHC17 / RFU, NOM1 / Fold change vs veh, NOM1 / RFU, ARL8B / Fold change vs veh, ARL8B / RFU, ZBTB11 / Fold change vs veh, ZBTB11 / RFU, TAMM41 / Fold change vs veh, TAMM41 / RFU, KIAA1704 /// LOC100996395 / Fold change vs veh, KIAA1704 /// LOC100996395 / RFU, ING1 / Fold change vs veh, ING1 / RFU, TRMT61B / Fold change vs veh, TRMT61B / RFU, FUBP3 / Fold change vs veh, FUBP3 / RFU, TP53 / Fold change vs veh, TP53 / RFU, TNKS2 / Fold change vs veh, TNKS2 / RFU, ZFP14 / Fold change vs veh, ZFP14 / RFU, ACTR2 / Fold change vs veh, ACTR2 / RFU, PPP3R1 / Fold change vs veh, PPP3R1 / RFU, PIK3R1 / Fold change vs veh, PIK3R1 / RFU, HNRNPA1 / Fold change vs veh, HNRNPA1 / RFU, RNF170 / Fold change vs veh, RNF170 / RFU, ZNF28 / Fold change vs veh, ZNF28 / RFU, RNGTT / Fold change vs veh, RNGTT / RFU, OGT / Fold change vs veh, OGT / RFU, BRD1 / Fold change vs veh, BRD1 / RFU, MARS / Fold change vs veh, MARS / RFU, ZNF655 / Fold change vs veh, ZNF655 / RFU, FAHD1 / Fold change vs veh, FAHD1 / RFU, BDP1 / Fold change vs veh, BDP1 / RFU, LRRCC1 / Fold change vs veh, LRRCC1 / RFU, ARID1A / Fold change vs veh, ARID1A / RFU, ZNF146 / Fold change vs veh, ZNF146 / RFU, ZNF330 / Fold change vs veh, ZNF330 / RFU, GPN3 / Fold change vs veh, GPN3 / RFU, C9orf123 / Fold change vs veh, C9orf123 / RFU, N4BP2L2 / Fold change vs veh, N4BP2L2 / RFU, ARFIP1 / Fold change vs veh, ARFIP1 / RFU, FAM179B / Fold change vs veh, FAM179B / RFU, BCL10 / Fold change vs veh, BCL10 / RFU, UHRF1BP1L / Fold change vs veh, UHRF1BP1L / RFU, BET1 / Fold change vs veh, BET1 / RFU, CNOT2 / Fold change vs veh, CNOT2 / RFU, ZNF268 / Fold change vs veh, ZNF268 / Fold change vs veh, ZNF507 / RFU, DGCR2 / Fold change vs veh, DGCR2 / RFU, WDSUB1 / Fold change vs veh, WDSUB1 / Fold change vs veh, HSP90B1 /// MIR3652 / RFU, ADSS / Fold change vs veh, ADSS / RFU, GK / Fold change vs veh, GK / RFU, ZNF148 / Fold change vs veh, ZNF148 / RFU, TAF9 / Fold change vs veh, TAF9 / RFU, SLC1A5 / Fold change vs veh, SLC1A5 / RFU, SLMO2 / Fold change vs veh, SLMO2 / RFU, ABCC4 / Fold change vs veh, ABCC4 / RFU, LOC101060439 /// RAP1B / Fold change vs veh, LOC101060439 /// RAP1B / RFU, RFX7 / Fold change vs veh, RFX7 / RFU, GTPBP10 / Fold change vs veh, GTPBP10 / RFU, CNEP1R1 / Fold change vs veh, CNEP1R1 / RFU, BIVM-ERCC5 /// ERCC5 / Fold change vs veh, BIVM-ERCC5 /// ERCC5 / RFU, ILF3 / Fold change vs veh, ILF3 / RFU 11762660_at / Fold change /veh 11762660_at / RFU VCAN (11757783_s_at) / Fold change /veh VCAN (11757783_s_at) / RFU DDX43 (11728927_at) / Fold change /veh DDX43 (11728927_at) / RFU KRT8 (11758188_x_at) / Fold change /veh KRT8 (11758188_x_at) / RFU NKD1 (11759106_at) / Fold change /veh NKD1 (11759106_at) / RFU SRD5A1 (11742802_a_at) / Fold change /veh SRD5A1 (11742802_a_at) / RFU TPSAB1 /// TPSB2 (11721975_s_at) / Fold change /veh TPSAB1 /// TPSB2 (11721975_s_at) / RFU GSTM3 (11746129_a_at) / Fold change /veh GSTM3 (11746129_a_at) / RFU IL23R (11737362_x_at) / Fold change /veh IL23R (11737362_x_at) / RFU TMEM51 (11727254_a_at) / Fold change /veh TMEM51 (11727254_a_at) / RFU PIWIL2 (11732686_x_at) / Fold change /veh PIWIL2 (11732686_x_at) / RFU ORM1 (11744905_x_at) / Fold change /veh ORM1 (11744905_x_at) / RFU CCDC152 (11743942_at) / Fold change /veh CCDC152 (11743942_at) / RFU ECM1 (11717891_a_at) / Fold change /veh ECM1 (11717891_a_at) / RFU IL23R (11748794_a_at) / Fold change /veh IL23R (11748794_a_at) / RFU TNFAIP8L3 (11732012_x_at) / Fold change /veh TNFAIP8L3 (11732012_x_at) / RFU MBOAT4 (11741988_at) / Fold change /veh MBOAT4 (11741988_at) / RFU 11764193_at / Fold change /veh 11764193_at / RFU TMEM53 (11763286_at) / Fold change /veh TMEM53 (11763286_at) / RFU MAGEB2 (11727129_at) / Fold change /veh MAGEB2 (11727129_at) / RFU TMEM200A (11744735_a_at) / Fold change /veh TMEM200A (11744735_a_at) / RFU CCDC152 (11751479_a_at) / Fold change /veh CCDC152 (11751479_a_at) / RFU FAM211A (11726209_a_at) / Fold change /veh FAM211A (11726209_a_at) / RFU RGS16 (11746705_a_at) / Fold change /veh RGS16 (11746705_a_at) / RFU VCAN (11755009_s_at) / Fold change /veh VCAN (11755009_s_at) / RFU RHOB (11743442_s_at) / Fold change /veh RHOB (11743442_s_at) / RFU RGS16 (11720943_a_at) / Fold change /veh RGS16 (11720943_a_at) / RFU RGS16 (11720944_at) / Fold change /veh RGS16 (11720944_at) / RFU, VPS4B / Fold change vs veh, VPS4B / RFU, CREB1 / Fold change vs veh, CREB1 / RFU, DNAJC13 / Fold change vs veh, DNAJC13 / RFU, GNAQ / Fold change vs veh, GNAQ / RFU, CDK5R1 / Fold change vs veh, CDK5R1 / RFU, ZRANB3 / Fold change vs veh, ZRANB3 / RFU, CUL4A / Fold change vs veh, CUL4A / RFU, CCNY / Fold change vs veh, CCNY / RFU, UFL1 / Fold change vs veh, UFL1 / RFU, COG3 / Fold change vs veh, COG3 / RFU, DIAPH2 / Fold change vs veh, DIAPH2 / RFU, SKA2 / Fold change vs veh, SKA2 / RFU, AFF3 / Fold change vs veh, AFF3 / RFU, LMF1 / Fold change vs veh, LMF1 / RFU, IPO11 / Fold change vs veh, IPO11 / RFU, DFFB / Fold change vs veh, DFFB / RFU, FOXP1 / Fold change vs veh, FOXP1 / RFU, CARD8 / Fold change vs veh, CARD8 / RFU, STRN3 / Fold change vs veh, STRN3 / RFU, ADK / Fold change vs veh, ADK / RFU, RASSF2 / Fold change vs veh, RASSF2 / RFU, WIPF1 / Fold change vs veh, WIPF1 / RFU, LARP1B / Fold change vs veh, LARP1B / RFU, RASA1 / Fold change vs veh, RASA1 / RFU, RB1 / Fold change vs veh, RB1 / RFU, PPFIA1 / Fold change vs veh, PPFIA1 / RFU, MAT2A / Fold change vs veh, MAT2A / RFU, CCT5 / Fold change vs veh, CCT5 / RFU, WDR92 / Fold change vs veh, WDR92 / RFU, CUX1 / Fold change vs veh, CUX1 / RFU, TTC7A / Fold change vs veh, TTC7A / RFU, TMEM135 / Fold change vs veh, TMEM135 / RFU, DEPTOR / Fold change vs veh, DEPTOR / RFU, CPM / Fold change vs veh, CPM / RFU, DNAJB6 / Fold change vs veh, DNAJB6 / RFU, CACNA2D3 / Fold change vs veh, CACNA2D3 / RFU, DTX4 / Fold change vs veh, DTX4 / RFU, TFCP2 / Fold change vs veh, TFCP2 / RFU, GMCL1 /// GMCL1P1 / Fold change vs veh, GMCL1 /// GMCL1P1 / RFU, AEBP2 / Fold change vs veh, AEBP2 / RFU, SNHG1 /// SNORD22 /// SNORD25 /// SNORD26 /// SNORD27 /// SNORD28 /// SNORD29 /// SNORD31 / Fold change vs veh, SNHG1 /// SNORD22 /// SNORD25 /// SNORD26 /// SNORD27 /// SNORD28 /// SNORD29 /// SNORD31 / Fold change (Aza/veh), C12orf56 (ProbeSet 11735607_a_at) / Fold change (ACY-1035/veh), C12orf56 (ProbeSet 11735607_a_at) / Fold change (Aza/veh), FGFR1OP (ProbeSet 11751329_s_at) / Fold change (ACY-1035/veh), FGFR1OP (ProbeSet 11751329_s_at) / Fold change (Aza/veh), VPS36 (ProbeSet 11739960_a_at) / Fold change (ACY-1035/veh), VPS36 (ProbeSet 11739960_a_at) / RFU SYPL1 (11715823_x_at) / Fold change /veh SYPL1 (11715823_x_at) / RFU IGFBP7 (11715501_s_at) / Fold change /veh IGFBP7 (11715501_s_at) / RFU REEP3 (11722064_at) / Fold change /veh REEP3 (11722064_at) / RFU IGLL1 (11728026_x_at) / Fold change /veh IGLL1 (11728026_x_at): dose or concentration left out as unconfirmed. Format: cell-based, human.

Consider `Nc1ccc(-c2cccs2)cc1NC(=O)c1ccc2c(c1)cc(C1CC1)n2CCN1CCOCC1` [ACY-1035], for which the “Fold change /veh TMEM53 (11763286_at)” value came to 0.91.
